Measured values as given in patent US20220380375A1, “SUBSTITUTED AROMATIC FUSED RING DERIVATIVE AND COMPOSITION COMPRISING SAME, AND USE THEREOF” (Shenzhen TargetRx, Inc., priority 2019, published 2022).
pIC50: −log10 of the molar value. Marks after values point to notes of the source that are not given here.

Key:
[1] = test system: Ba/F3 KIF5B-RET cell line tumor model; assay: Anti-tumor effect assay in Ba/F3 KIF5B-RET cell line tumor model (allograft); assay type: in vivo, female NPSG mice; settings: for Tumor volume (x ± S), Day 0 of administration: 10 mg/kg p.o. QD × 14, day 0 (baseline); for TGI (%), Day 14 of administration / Tumor volume (x ± S), Day 14 of administration: 10 mg/kg p.o. QD × 14, day 14
Source text: (§1) The efficacy of compounds of the present disclosure in female NPSG mouse allograft models of two B-cell lymphoma cell lines Ba/F3 KIF5B-RET and Ba/F3 KIF5B-RET^G810R was verified.
(§2) Assay animals: Female NPSG mice, 6-8 weeks old (age of mice at the time of tumor cell inoculation), weighing 18-20 g, 60 mice, purchased from Shanghai Jihui Laboratory Animal Care Co., Ltd.
(§3) Assay methods: 1) Ba/F3 KIF5B-RET and Ba/F3 KIF5B-RET^G810R cells were respectively resuscitated and Cultured in vitro, and 3×10^7 cells of each type were obtained. 2) 60 female NPSG mice aged 6-8 weeks were adaptively bred for 1 week and then weighed. 4) After inoculation, tumor volume and body weight were measured once a week. When average tumor volume reached about […], mice inoculated with each type of Ba/F3 cells were randomly divided into 7 groups according to tumor volume and body weight, with 3 mice in each group. The administration was started immediately after grouping. The date of start of administration was regarded as day 0. Informations on administration and grouping were shown in Tables 5 and 6.5) After the start of the administration, the body weight and tumor volume of mice were measured twice a week. 6) After the end of the administration, the assay was over.
(§4) Assay observation and data collection: After tumor inoculation, morbidity and death of animals were observed every working day. Daily observation included tumor growth and effects of drugs on laboratory animals, such as changes in activity, changes in feeding and drinking, weight loss, changes in appearance of hair and eye, death and other clinical symptoms. Formula for calculating tumor volume is: tumor volume (mm^3)=½×(a×b^2) (wherein a represents the long diameter and b represents the short diameter)
(§5) Relative tumor inhibition rate TGI (%): TGI %=(1−T/C)×100%. T/C % is relative tumor proliferation rate, that is, a percentage value of relative tumor volume between treatment group and control group at a certain point in time. T and C are relative tumor volume (RTV, that is, the […] tumor volume at this time point and tumor volume at day 0) of treatment group and control group at a certain point in time, respectively.
(§6) Statistical analysis: For pairwise comparison, a T-Test analysis method was used, and for comparison of three or more groups, a One-Way ANOVA method was used. For comparison of potential synergistic effects, a Two-way ANOVA was used. SPSS 24.0 was used for all data. A p value less than 0.05 was considered a significant difference.

[2] = Safety assay (body weight, tolerability) in Ba/F3 KIF5B-RET^G810R cell line tumor model; assay type: in vivo; settings: for Number of animals at the beginning/end of assay: 25 mg/kg p.o. QD × 13; for Average weight g (x ± S), Day 0 of administration: 25 mg/kg p.o. QD × 13, day 0 (baseline); for Average weight g (x ± S), Day 13 of administration / Weight change rate (%), Day 13 of administration: 25 mg/kg p.o. QD × 13, day 13; for tolerability (weight loss, drug withdrawal, drug toxicity): during the treatment
Experimental: as §3, §4

[3] = test system: Ba/F3 KIF5B-RET^G810R cell line tumor model; assay: Anti-tumor effect assay in Ba/F3 KIF5B-RET^G810R cell line tumor model (allograft); assay type: in vivo, female NPSG mice; settings: for Tumor volume (x ± S), Day 0 of administration / Tumor volume (x ± S), Day 13 of administration / TGI (%), Day 13 of administration: Ba/F3 KIF5B-RET^G810R model; for Tumor volume (x ± S), Day 0 of administration: 25 mg/kg p.o. QD × 13, day 0 (baseline); for Tumor volume (x ± S), Day 13 of administration / TGI (%), Day 13 of administration: 25 mg/kg p.o. QD × 13, day 13; for TGI (%), Day 13 of administration: TGI more than 100% = decrease in tumor volume; for relative tumor inhibition rate TGI (%): day 13 of administration, AD80 group 25 mg/kg
Source text: as §1, §2, §3, §4, §5, §6

[4] = Safety assay (body weight, tolerability) in Ba/F3 KIF5B-RET cell line tumor model; assay type: in vivo; settings: for Number of animals at the beginning/end of assay: 10 mg/kg p.o. QD × 14; for Average weight g (x ± S), Day 0 of administration: 10 mg/kg p.o. QD × 14, day 0 (baseline); for Average weight g (x ± S), Day 14 of administration / Weight change rate (%), Day 14 of administration: 10 mg/kg p.o. QD × 14, day 14; for tolerability (weight loss, drug withdrawal, drug toxicity): during the treatment
Experimental: as §3, §4

[5] = target: T1, Ret wt (Homo sapiens, UniProt P07949); assay: Inhibition of kinase, Ret wt (HTRF KinEASE-TK); assay type: biochemical
T1 construct: purchased Carna 08-159-10 ug
T1 sequence (P07949 29-1114): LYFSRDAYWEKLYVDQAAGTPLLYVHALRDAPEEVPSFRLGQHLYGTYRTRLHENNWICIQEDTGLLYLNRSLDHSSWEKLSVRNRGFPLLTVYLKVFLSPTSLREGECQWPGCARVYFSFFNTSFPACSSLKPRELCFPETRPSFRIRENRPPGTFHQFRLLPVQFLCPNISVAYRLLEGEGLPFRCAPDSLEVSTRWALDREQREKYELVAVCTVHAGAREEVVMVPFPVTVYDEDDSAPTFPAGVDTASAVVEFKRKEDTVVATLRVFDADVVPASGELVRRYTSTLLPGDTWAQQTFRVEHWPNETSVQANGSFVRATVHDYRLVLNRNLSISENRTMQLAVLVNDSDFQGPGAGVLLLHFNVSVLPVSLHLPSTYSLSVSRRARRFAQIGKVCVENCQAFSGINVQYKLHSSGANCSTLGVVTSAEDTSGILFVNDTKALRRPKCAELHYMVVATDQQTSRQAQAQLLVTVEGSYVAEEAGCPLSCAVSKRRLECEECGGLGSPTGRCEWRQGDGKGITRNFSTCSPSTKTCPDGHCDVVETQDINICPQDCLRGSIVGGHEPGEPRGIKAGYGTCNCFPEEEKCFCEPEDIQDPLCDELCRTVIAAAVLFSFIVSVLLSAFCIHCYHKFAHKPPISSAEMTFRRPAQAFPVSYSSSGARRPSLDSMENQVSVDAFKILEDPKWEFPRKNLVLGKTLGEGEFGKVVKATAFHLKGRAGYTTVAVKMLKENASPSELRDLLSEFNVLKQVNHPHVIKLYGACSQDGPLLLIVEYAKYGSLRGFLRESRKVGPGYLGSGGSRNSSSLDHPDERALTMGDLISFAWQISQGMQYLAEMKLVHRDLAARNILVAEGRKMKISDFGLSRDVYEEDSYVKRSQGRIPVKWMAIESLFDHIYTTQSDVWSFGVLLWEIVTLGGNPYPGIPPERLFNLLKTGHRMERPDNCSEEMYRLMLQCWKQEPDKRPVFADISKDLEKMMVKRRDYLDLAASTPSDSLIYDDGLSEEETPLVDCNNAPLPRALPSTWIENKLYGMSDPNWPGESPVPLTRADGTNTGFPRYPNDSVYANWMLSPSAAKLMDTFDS
Experimental: (§7) Ret wt (Carna, Cat. No. 08-159-10 ug), RET (V804M), Active (Signalchem. Cat. No. R02—12GG), HTRF KinEASE-TK kit (Cisbio, Cat. No.62TK0PEC), CEP-32496 (MCE, Cat. No. HY-15200), ATP (Sigma. Cat. No. A7699), DMSO (Sigma, Cat. No. D8418-1L), DTT (Sigma, Cat. No. D0632), MgCl2(Sigma, Cat. No. M1028), 384-well plate (Labcyte, Cat. No. P-05525-BC).
(§8) Formulation of compound: The test compounds were dissolved in DMSO to obtain 10 mM stock solutions, which were then serially diluted 3-fold in DMSO to obtain 10 concentrations. At the time of addition, the compound was further diluted 10-fold with buffer.
(§9) In 5×kinase buffer A, Ret wt or RET V804M kinase was mixed with different concentrations of compounds prepared by pre-dilution for 10 minutes. Each concentration was tested in duplicate. The corresponding substrate and ATP were added, and reaction was performed at room temperature for 20 minutes (negative and positive controls were provided: the negative control was a blank control, and the positive control was CEP-32496 (Agerafenib)). After completion of the reaction, detection reagents (reagents in the HTRF KinEASE-TK kit) were added. After incubating for 30 minutes at room temperature, enzyme activity in the presence of various concentrations of the compounds of the present disclosure was determined by Envision microplate reader, and inhibitory activity of different concentrations of the compounds on enzyme activity was calculated. The inhibitory activity of different concentrations of the compounds on enzyme activity was fitted by Graphpad 5.0 software, and the IC50 value was calculated.

[6] = target: T2, RET V804M (Homo sapiens, UniProt P07949, V804M); assay: Inhibition of kinase, RET V804M (HTRF KinEASE-TK); assay type: biochemical
T2 construct: purchased Signalchem R02—12GG
T2 sequence (P07949 29-1114 V804M): as the sequence (P07949 29-1114) above, with V776M counted along it
Experimental: as §7, §8, §9

Compound	Tumor volume (x ± S), Day 0 of administration [1]	TGI (%), Day 14 of administration [1]	Tumor volume (x ± S), Day 14 of administration [1]	Number of animals at the beginning/end of assay [2]	Average weight g (x ± S), Day 0 of administration [2]	Average weight g (x ± S), Day 13 of administration [2]	Weight change rate (%), Day 13 of administration [2]	tolerability (weight loss, drug withdrawal, drug toxicity) [2]	Tumor volume (x ± S), Day 0 of administration [3]	Tumor volume (x ± S), Day 13 of administration [3]	TGI (%), Day 13 of administration [3]	relative tumor inhibition rate TGI (%) [3]	Number of animals at the beginning/end of assay [4]	Average weight g (x ± S), Day 0 of administration [4]	Average weight g (x ± S), Day 14 of administration [4]	Weight change rate (%), Day 14 of administration [4]	tolerability (weight loss, drug withdrawal, drug toxicity) [4]	pIC50 [5]	pIC50 [6]
CC(C)n1nc(-c2ccc(NC(=O)Nc3cc(C(F)(F)F)ccc3F)cc2)c2c(N)ncnc21 [AD80, reference compound]	100.3 ± 4.33 mm^3	46.4%	821.7 ± 54.5 mm^3	3/3	19.9 ± 0.44 g	20.7 ± 1.53 g	4.14%	well tolerated	94.7 ± 5.24 mm^3	185.7 ± 33.65 mm^3	75.2%	75.2%	3/3	20.1 ± 0.81 g	22.6 ± 0.87 g	12.7%	well tolerated	–	–
CC(C)n1nc(-c2ccc(CC(=O)Nc3cc(C(C)(C)C(F)(F)F)on3)cc2)c2c(N)ncnc21 [Compound T-1, 2-(4-(4-amino-1-isopropyl-1H-pyrazolo[3,4-d]pyrimidin-3-yl)phenyl)-N-(5-(1,1,1-trifluoro-2-methylprop-2-yl)isoxazol-3-yl)acetamide]	102.7 ± 6.06 mm^3	90.3%	233 ± 65.74 mm^3	3/3	20.3 ± 1.32 g	21.3 ± 1.19 g	4.90%	well tolerated	98 ± 3.61 mm^3	63.7 ± 16.19 mm^3	109.4%#	109.4%	3/3	20.9 ± 1.06 g	21.6 ± 1.05 g	3.4%	well tolerated	≥ 9.30	≥ 9.30
CC(C)n1nc(-c2ccc(NC(=O)Nc3cc(C(C)(C)C(F)(F)F)on3)cc2)c2c(N)ncnc21 [Compound T-2, 1-(4-(4-amino-1-isopropyl-1H-pyrazolo[3,4-d]pyrimidin-3-yl)phenyl)-3-(5-(1,1,1-trifluoro-2-methylprop-2-yl)isoxazol-3-yl)urea]	102 ± 5.51 mm^3	63.9%	588.7 ± 25.3 mm^3	3/3	19.6 ± 0.47 g	21.7 ± 0.74 g	11.05%	well tolerated	94.3 ± 3.84 mm^3	150.7 ± 4.33 mm^3	84.6%	84.6%	3/3	20.1 ± 0.56 g	21.7 ± 0.59 g	8.1%	well tolerated	≥ 9.30	8.00 to 9.00
CC(C)c1nc(-c2ccc(CC(=O)Nc3cc(C(C)(C)C(F)(F)F)on3)cc2)c2c(N)nccn12 [Compound T-4, 2-(4-(8-amino-3-isopropylimidazo[1,5-a]pyrazin-1-yl)phenyl)-N-(5-(1,1,1-trifluoro-2-methylprop-2-yl)isoxazol-3-yl)acetamide]	–	–	–	–	–	–	–	–	–	–	–	–	–	–	–	–	–	≥ 9.30	8.00 to 9.00
CC(C)n1nc(-c2ccc(CC(=O)Nc3cc(C(C)(C)C(F)(F)F)on3)cn2)c2c(N)ncnc21 [Compound T-7, 2-(6-(4-amino-1-isopropyl-1H-pyrazolo[3,4-d]pyrimidin-3-yl)pyridin-3-yl)-N-(5-(1,1,1-trifluoro-2-methylprop-2-yl)isoxazol-3-yl)acetamide]	–	–	–	–	–	–	–	–	–	–	–	–	–	–	–	–	–	8.00 to 9.00	8.00 to 9.00
CC(C)n1nc(-c2ccc(CC(=O)Nc3cc(C(C)(C)C(F)(F)F)no3)cc2)c2c(N)ncnc21 [Compound T-8, 2-(4-(4-amino-1-isopropyl-1H-pyrazolo[3,4-d]pyrimidin-3-yl)phenyl)-N-(3-(1,1,1-trifluoro-2-methylprop-2-yl)isoxazol-5-yl)acetamide]	101.3 ± 4.33 mm^3	95.4%	163.7 ± 19.74 mm^3	3/3	19.6 ± 0.32 g	22.5 ± 0.73 g	14.40%	well tolerated	96.7 ± 6.74 mm^3	90.7 ± 8.41 mm^3	101.6%#	101.6%	3/3	20.5 ± 1.07 g	21.7 ± 0.82 g	6.0%	well tolerated	–	–
[2H]C([2H])([2H])C(n1nc(-c2ccc(CC(=O)Nc3cc(C(C)(C)C(F)(F)F)no3)cc2)c2c(N)ncnc21)C([2H])([2H])[2H] [Compound T-11, 2-(4-(4-amino-1-(propan-2-yl-1,1,1,3,3,3-d6)-1H-pyrazolo[3,4-d]pyrimidin-3-yl)phenyl)-N-(3-(1,1,1-trifluoro-2-methylpropan-2-yl)isoxazol-5-yl)acetamide]	–	–	–	–	–	–	–	–	–	–	–	–	–	–	–	–	–	8.00 to 9.00	8.00 to 9.00
[2H]C([2H])([2H])C(n1cc(-c2ccc(CC(=O)Nc3cc(C(C)(C)C(F)(F)F)on3)cc2)c2c(N)ncnc21)C([2H])([2H])[2H] [Compound T-12, 2-(4-(4-amino-7-(propen-2-yl-1,1,1,3,3,d6)-7H-pyrrolo[2,3-d]pyrimidin-5-yl)phenyl)-N-(5-(1,1,1-trifluo-2-methylpropan-2-yl)isoxazol-3-yl)acetamide]	–	–	–	–	–	–	–	–	–	–	–	–	–	–	–	–	–	7.30 to 8.00	8.00 to 9.00
